Source: patent US20040122026A1, “Imidazolidine compounds” (Millennium Pharmaceuticals, Inc., priority 2002, published 2004)

These molecules were tested against T1, CXCR3 (Homo sapiens, UniProt P49682) (assay: CXCR3/IP-10 radioligand binding (125I-IP-10 competition on CXCR3.L1/2 cell membranes)). Conditions: test compound 10 μmol/L; 125I-labeled IP-10 binding to CXCR3.L1/2 transfectant cell membranes; results Table 5.
T1 construct: expressed in transfected cells; membrane preparation
T1 sequence (P49682 1-368): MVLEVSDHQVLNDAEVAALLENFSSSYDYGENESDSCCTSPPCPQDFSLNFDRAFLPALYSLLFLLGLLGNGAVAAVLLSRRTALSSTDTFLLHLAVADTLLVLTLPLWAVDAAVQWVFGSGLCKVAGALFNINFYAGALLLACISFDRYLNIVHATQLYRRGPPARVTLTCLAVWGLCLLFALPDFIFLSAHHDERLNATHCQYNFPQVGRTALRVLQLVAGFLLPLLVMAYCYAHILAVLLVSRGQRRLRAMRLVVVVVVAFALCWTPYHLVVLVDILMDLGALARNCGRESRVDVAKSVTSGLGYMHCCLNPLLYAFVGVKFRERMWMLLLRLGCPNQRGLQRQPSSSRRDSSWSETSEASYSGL
Excerpt: The activity of the compounds of the present invention can be assessed using a suitable assay, such as a receptor binding assay, a chemotaxis assay, an extracellular acidification assay or a calcium flux assay (see, for example, Hesselgesser et al., J. Biol. Chem., 273(25): 15687-15692 (1998) and WO 98/02151). For example, as described herein, small organic molecule antagonists of CXCR3/IP-10 binding have been identified utilizing cells engineered to express recombinant human CXCR3 (CXCR3.L1/2) and which bind ^125I-IP-10 and chemotax in response to IP-10, Mig, or I-TAC. Specifically, a high through-put receptor binding assay, which monitors ^125I-IP-10 biding to CXCR3.L1/2 cell membranes, was used to identify small molecule antagonists. Binding assays can be performed using other ligands of CXCR3, such as, Mig, and/or I-TAC.
CXCR3/IP-10 Radioligand Binding:
CXCR3.L1/2 Membrane Preparation:
CXCR3.L1/2 cells were pelleted by centrifugation and stored at −80° C. The cells were lysed by thawing and resuspending at about 1.5×10^7 cells/mL in a hypotonic buffer (5 mmol/L HEPES (pH 7.2), 2 mmol/L EDTA, 10 μg/mL each leupeptin, aprotinin, and chymostatin, and 100 μg/mL PMSF (all from Sigma, St. Louis)). Nuclei and cellular debris are removed by centrifugation ([…], at 4° C.) for 10 min. The supernatant was transferred to chilled centrifuge tubes (Nalge, Rochester, N.Y.) and the membrane fraction was recovered by centrifugation (25,000 g at 4° C.) for 45 min. The membrane pellet was resuspended in freezing buffer (10 mmol/L HEPES (pH 7.2), 300 mmol/L Sucrose, 5 μg/mL each of leupeptin, aprotinin, and chymostatin, and 10 μg/mL PMSF). The total protein concentration was determined using a coomassie blue staining protein concentration assay kit (BioRad). The membrane preparations are aliquoted and stored at −80° C. until time of use.
CXCR3/IP-10 binding was performed in 96-well polypropylene plates (Costar) in a final volume of 0.1 mL of HBB buffer (50 mmol/L Hepes pH 7.4, 1 mmol/L CaCl2, 5 mmol/L MgCl2, 0.02% sodium azide, 0.5% BSA (bovine serum albumin)), containing 1 to 5 μg CXCR3.L1/2 transfectant cell membrane protein and 0.05 to 0.2 nmol/L of ^125I-labeled IP-10 (NEN, Boston, Mass.). Competition binding experiments were performed by including variable concentrations of unlabeled IP-10 or test compound. Nonspecific binding was determined following the addition of a 250 nmol/L unlabelled IP-10. Samples were incubated for 60 min at room temperature, and bound and free tracer (^125I-labeled IP-10) were separated by filtration through 96-well GF/B filterplates presoaked in 0.3% polyethyleneimine. The filters were washed in HBB further supplemented with 0.5 mol/L NaCl, dried, and the amount of bound radioactivity determined by liquid scintillation counting. The competition is presented as the percent specific binding as calculated by 100×[(S−B)/(T−B)], where S is the radioactivity bound for each sample, B is background binding, and T is total bound in the absence of competitors. Duplicates were used throughout the experiments.

inhibition at 10 µM [%]	SMILES
92	Cc1cc(C)cc(CN2CCN(CCC(=O)N(C)c3cccc(CN4CCCCC4)c3)C2=C(C#N)C#N)c1 [Compound 1, N-Methyl-N-[3-(piperidinomethyl)phenyl]-3-[3-(3,5-dimethylbenzyl)-2-dicyanomethylideneimidazolidin-1-yl]propionamide]
99	CCCN(C(=O)CCN1CCN(Cc2cc(C)cc(C)c2)C1=C(C#N)C#N)c1cccc(CN2CCCCC2)c1 [Compound 2, N-Propyl-N-[3-(piperidinomethyl)phenyl]-3-[3-(3,5-dimethylbenzyl)-2-dicyanomethylideneimidazolidin-1-yl]propionamide]
106	Cc1cc(C)cc(CN2CCN(CCC(=O)N(c3cccc(CN4CCCCC4)c3)C(C)C)C2=C(C#N)C#N)c1 [Compound 3, N-Isopropyl-N-[3-(piperidinomethyl)phenyl]-3-[3-(3,5-dimethylbenzyl)-2-dicyanomethylideneimidazolidin-1-yl]propionamide]
95	Cc1cc(C)cc(CN2CCN(CCC(=O)N(Cc3ccccc3)c3cccc(CN4CCCCC4)c3)C2=C(C#N)C#N)c1 [Compound 5, N-Benzyl-N-[3-(piperidinomethyl)phenyl]-3-[3-(3,5-dimethylbenzyl)-2-dicyanomethylideneimidazolidin-1-yl]propionamide]
83	Cc1cc(C)cc(CN2CCN(CCC(=O)N(CCO)c3cccc(CN4CCCCC4)c3)C2=C(C#N)C#N)c1 [Compound 7, N-(2-Hydroxyethyl)-N-[3-(piperidinomethyl)phenyl]-3-[3-(3,5-dimethylbenzyl)-2-dicyanomethylideneimidazolidin-1-yl]propionamide]
95	CCOC(=O)CN(C(=O)CCN1CCN(Cc2cc(C)cc(C)c2)C1=C(C#N)C#N)c1cccc(CN2CCCCC2)c1 [Compound 8, N-Ethoxycarbonylmethyl-N-[3-(piperidinomethyl)phenyl]-3-[3-(3,5-dimethylbenzyl)-2-dicyanomethylideneimidazolidin-1-yl]propionamide]
83	Cc1cc(C)cc(CN2CCN(CCC(=O)N(CC(=O)O)c3cccc(CN4CCCCC4)c3)C2=C(C#N)C#N)c1 [Compound 9, N-Carboxymethyl-N-[3-(piperidinomethyl)phenyl]-3-[3-(3,5-dimethylbenzyl)-2-dicyanomethylideneimidazolidin-1-yl]propionamide]
95	Cc1cc(C)cc(CN2CCN(CCC(=O)N(CCCF)c3cccc(CN4CCCCC4)c3)C2=C(C#N)C#N)c1 [Compound 11, N-(3-Fluoropropyl)-N-[3-(piperidinomethyl)phenyl]-3-[3-(3,5-dimethylbenzyl)-2-dicyanomethylideneimidazolidin-1-yl]propionamide]
84	Cc1cc(C)cc(CN2CCN(CCC(=O)N(CC(N)=O)c3cccc(CN4CCCCC4)c3)C2=C(C#N)C#N)c1 [Compound 12, N-Aminocarbonylmethyl-N-[3-(piperidinomethyl)phenyl]-3-[3-(3,5-dimethylbenzyl)-2-dicyanomethylideneimidazolidin-1-yl]propionamide]
67	Cc1cc(C)cc(CN2CCN(CCC(=O)N(Cc3nnn[nH]3)c3cccc(CN4CCCCC4)c3)C2=C(C#N)C#N)c1 [Compound 13, N-(1H-tetrazol-5-ylmethyl)-N-[3-(piperidinomethyl)phenyl]-3-[3-(3,5-dimethylbenzyl)-2-dicyanomethylideneimidazolidin-1-yl]propionamide]

Further lines, the molecule ahead of its results:

SMILES	inhibition at 10 µM [%]
Cc1cc(C)cc(CN2CCN(CCC(=O)N(c3cccc(CN4CCCCC4)c3)C3CCCCC3)C2=C(C#N)C#N)c1 [Compound 4, N-Cyclohexyl-N-[3-(piperidinomethyl)phenyl]-3-[3-(3,5-dimethylbenzyl)-2-dicyanomethylideneimidazolidin-1-yl]propionamide]	109
CC(=O)OCCN(C(=O)CCN1CCN(Cc2cc(C)cc(C)c2)C1=C(C#N)C#N)c1cccc(CN2CCCCC2)c1 [Compound 6, N-(2-Acetoxyethyl)-N-[3-(piperidinomethyl)phenyl]-3-[3-(3,5-dimethylbenzyl)-2-dicyanomethylideneimidazolidin-1-yl]propionamide]	93

Same assay, conditions: test compound 10 μmol/L; 125I-labeled IP-10 binding to CXCR3.L1/2 transfectant cell membranes; results Table 6

SMILES	inhibition at 10 µM [%]	% inhibition at 10 μmol/L [%]
Cc1cccc(CN2CCN(CCC(=O)N(c3cccc(CN4CCCCC4)c3)C(C)C)C2=C(C#N)C#N)c1C [Compound 14, N-Isopropyl-N-[3-(piperidinomethyl)phenyl]-3-[3-(2,3-dimethylbenzyl)-2-dicyanomethylideneimidazolidin-1-yl]propionamide]	105	
CC(C)N(C(=O)CCN1CCN(C2Cc3cccc4cccc2c34)C1=C(C#N)C#N)c1cccc(CN2CCCCC2)c1 (stereo not drawn) [Compound 15, N-Isopropyl-N-[3-(piperidinomethyl)phenyl]-3-[3-(1-acenaphthenyl)-2-dicyanomethylideneimidazolidin-1-yl]propionamide]	95	
CC(C)N(C(=O)CCN1CCN(Cc2cc(Cl)cc(Cl)c2)C1=C(C#N)C#N)c1cccc(CN2CCCCC2)c1 [Compound 17, N-Isopropyl-N-[3-(piperidinomethyl)phenyl]-3-[3-(3,5-dichlorobenzyl)-2-dicyanomethylideneimidazolidin-1-yl]propionamide]	93	
CCCN(C(=O)CCN1CCN(Cc2cc(Cl)cc(Cl)c2)C1=C(C#N)C#N)c1cc(CN2CCCCC2)ccc1C [Compound 18, N-Propyl-N-[2-methyl-5-(piperidinomethyl)phenyl]-3-[3-(3,5-dichlorobenzyl)-2-dicyanomethylideneimidazolidin-1-yl]propionamide]	94	
CCCN(C(=O)CCN1CCN(Cc2cc(Cl)cc(Cl)c2)C1=C(C#N)C#N)c1cc(CN2CCCCC2)ccc1Cl [Compound 19, N-Propyl-N-[2-chloro-5-(piperidinomethyl)phenyl]-3-[3-(3,5-dichlorobenzyl)-2-dicyanomethylideneimidazolidin-1-yl]propionamide]	101	
CCCN(C(=O)CCN1CCN(Cc2cc(Cl)cc(Cl)c2)C1=C(C#N)C#N)c1cccc(CN2CCCCC2)c1C [Compound 20, N-Propyl-N-[2-methyl-3-(piperidinomethyl)phenyl]-3-[3-(3,5-dichlorobenzyl)-2-dicyanomethylideneimidazolidin-1-yl]propionamide]	68	
CCCNCc1cccc(N(CC)C(=O)CCN2CCN(Cc3cc(C)cc(C)c3)C2=C(C#N)C#N)c1 [Compound 21, N-Ethyl-N-[3-(propylaminomethyl)phenyl]-3-[3-(3,5-dimethylbenzyl)-2-dicyanomethylideneimidazolidin-1-yl]propionamide]	71	
Cc1cc(C)cc(CN2CCN(CCC(=O)N(c3cccc(CN4CCOCC4)c3)C(C)C)C2=C(C#N)C#N)c1 [Compound 22, N-Isopropyl-N-[3-(morpholinomethyl)phenyl]-3-[3-(3,5-dimethylbenzyl)-2-dicyanomethylideneimidazolidin-1-yl]propionamide]	93	
Cc1cc(C)cc(CN2CCN(CCC(=O)N(c3cccc(CN4CCN(C)CC4)c3)C(C)C)C2=C(C#N)C#N)c1 [Compound 23, N-Isopropyl-N-[3-(4-methyl-1-piperazinylmethyl)phenyl]-3-[3-(3,5-dimethylbenzyl)-2-dicyanomethylideneimidazolidin-1-yl]propionamide]		92
